Measured values taken from patent US6777405B2, “Detection and treatment of duplex polynucleotide damage” (California Institute of Technology, priority 1997, dated 2004).

Experiments:
[1] = test system: mismatch-sequence context combinations in DNA duplexes; assay: Photocleavage with systematically changed bases 5′ and 3′ of the mismatch site; type: biochemical; details: flanking bases 5′ and 3′ of the mismatch systematically changed
[2] = test system: B-form DNA (33mer correctly matched hairpin, 25mer B-DNA); assay: Photocleavage on correctly matched hairpin and competitive titration with unlabeled B-DNA; type: binding
Description: (§1) The thermodynamic binding constant was determined to be 8.4 (±1.0)×10^5 M^−1. Similar DNA photocleavage titrations at other mismatch sites have measured the affinity of Δ [Rh(bpy)2(chrysi)]^3+ between 1×10^7 and 3×10^5 M^−1. To examine the level of selectivity the average binding constant of Δ[Rh(bpy)2(chrysi)]^3+ to B-form DNA was also determined. Photocleavage on a 33mer correctly matched hairpin and competitive titration with unlabeled 25mer B-DNA yielded a value of 4 (±2)×10^4 M^−1 for the average non-specific binding affinity.

[3] = test system: DNA duplexes having a single base pair mismatch (SEQ ID NO:1/SEQ ID NO:2); assay: Photocleavage of 17-mer DNA duplexes with a single base pair mismatch (365 nm, PAGE); type: biochemical
Description: A set of DNA duplexes was prepared having the following sequence:
3′-[…]-5′(SEQ ID NO:1)
5′-[…]-3′(SEQ ID NO:2),
where X and Y were varied to provide A-T, G-C, and the following mismatches: C-C, C-A, T-T, A-A, T-C, T-G, G-A, and G-G. All oligonucleotides were prepared using standard phosphoramidite chemistry, and were purified by reverse phase HPLC. The oligonucleotides were 5′ end-labeled with γ-^32P ATP (Dupont-NEN) and T4 polynucleotide kinase (New England Biolabs).
Duplexes (10 μM) were incubated with Δ or Λ [Rh(bpy)2(chrysi)]^3+(1 μM in 50 mM Tris, 20 mM NaOAc, 18 mM NaCl, pH 7.0) for 11 minutes, then irradiated for 13 min at 365 nm using an Oriel HgXe arc lamp. The products were analyzed by PAGE (20%, denaturing), imaged using a Molecular Dynamics Phosphorimager. The lanes labeled A+G and C+T are standard Maxam-Gilbert sequencing reactions: the remaining columns show cleavage (or lack of cleavage) for each tested mismatch with each enantiomer. […] Here, cleavage occurred to the 3′ side of the mismatch site. […] Unlike the other recognized mismatches, the cleavage 3′ to C-A results in two products having different gel mobility, possibly the result of chemically different polymer termini. The cleavage of A-A was also distinctive.

[4] = test system: hairpin DNA oligonucleotide (SEQ ID NO:3) having a single C-C mismatch; assay: Photocleavage titration on hairpin DNA with single C-C mismatch; details: 313 or 365 nm, Rh complex at 0.10× DNA concentration, single binding site model fit
Description: A hairpin DNA oligonucleotide was synthesized with the sequence:
5′-[…]-3′ (SEQ ID NO:3), having a single C-C mismatch. The hairpin was photocleaved as described in Example 2 above with Δ[Rh(bpy)2(chrysi)]^3+ at either 313 nm or 365 nm for 7.5 to 15 min. Hairpin DNA concentration was varied from 3×10^−10 M to 1×10^−4 M, with the Rh complex used at 0.10× the DNA concentration. The cleavage products were eluted through 20% denaturing polyacrylamide gels, and analyzed using a Molecular Dynamics Phosphorimager and ImageQuant software. Cleavage was observed 3′ to the C-C mismatch on both sides of the hairpin: only the cleavage band closest to the end label was quantitated. Data from multiple trials was normalized (open circles) and fit to a standard single binding site binding model (solid line).
as §1

[5] = duplex 10 μM, complex 1 μM, 13 min at 365 nm
[6] = duplex 10 μM, complex 1 μM, 13 min at 365 nm, compared with C-C

Substance | mismatch-sequence context combinations at which photocleavage was observed (count) [1] | mismatch-sequence context combinations at which photocleavage was observed (percent) [1] | average non-specific binding affinity [2] | photocleavage at A-A mismatch, base 3′ to the site [3, 5] | photocleavage at the A-A site itself [3, 5] | photocleavage at C-A mismatch ([3]; duplex 10 μM, complex 1 μM, 13 min at 365 nm, at the mismatched C and the base 3′ to the mismatch site) | photocleavage at T-C mismatch [3, 6] | photocleavage at T-T mismatch [3, 6] | photocleavage at C-C mismatch ([3]; duplex 10 μM, complex 1 μM, pH 7.0, irradiated 13 min at 365 nm, cleavage to the 3′ side of the mismatch site) | thermodynamic binding constant [4] | mismatch pairs cleaved among all tested pairs ([3]; A-T, G-C, C-C, C-A, T-T, A-A, T-C, T-G, G-A, G-G tested) | photocleavage at A-A mismatch relative to the other enantiomer [3, 5]
Δ-[Rh(bpy)2(chrysi)]Cl3 [Δ[Rh(bpy)2(chrysi)]^3+] | 83 of 104 | 80% | 4 (±2)×10^4 M^−1 | strong cleavage | a small amount of cleavage | Strong cutting | less intense cleavage | less intense cleavage | strongest cleavage intensity | 8.4 (±1.0)×10^5 M^−1 | – | –
Λ-[Rh(bpy)2(chrysi)]Cl3 [Λ enantiomer] | – | – | – | – | – | – | – | – | – | – | The A-A mismatch is the only pair cleaved | weaker cleavage
